Measurements reported in US20250144054A1, “SMALL MOLECULE STAT3 INHIBITOR FOR TREATING TRIPLE NEGATIVE BREAST CANCER” (UNIVERSITY OF MARYLAND, BALTIMORE, priority 2022, published 2025).

Tests used:
STAT1 = test: IFN-γ induced STAT1 phosphorylation, Western blot, T47D cells; type: cell-based, human; conditions: pretreated 2 hours, 50 ng/ml IFN-γ 30 minutes
Description: (A) The chemical structures of LLL12B and LLL12. The carbamate ester bond of LLL12B is hydrolytically cleaved by the tumor-associated plasmin to release LLL12. (B) SUM159 cells were seeded in a 6-well plate and treated with LLL12B for 8 hours. Cells were stained with Phospho-Stat3 (Tyr705) and DAPI (indicated by arrows). Green: P-STAT3 (Y705); Blue: DAPI. T47D (C) and MDA-MB-231 (D) breast cancer cells were pretreated with DMSO or LLL12B in a serum-free medium for 2 hours and stimulated with 50 ng/ml of IL-6, IFN-γ, or EGF for additional 30 minutes. Cells were collected and analyzed by Western blot. GAPDH served as a protein loading control.
Western blot. Cells were collected and total protein was extracted using cell lysis buffer (Cell Signaling Technology, Danvers, MA, USA). Protein concentration was determined using the Pierce BCA Protein Assay Kit (Thermo Fisher Scientific, Waltham, MA, USA) according to the manufacturer's instructions. Equal amounts of protein were separated by 10% SDS-PAGE gels and transferred to PVDF membranes. Membranes were blocked in 5% non-fat milk at room temperature and probed with specific antibodies P-STAT3 (Y705), STAT3, Cyclin D1, Cleaved Caspase-3, P-STAT1 (Y701), STAT1, P-ERK, ERK or GAPDH (1:1000, Cell Signaling Technology, Danvers, MA, USA) at 4° C. overnight. […]

caspase-3/7 = test: Caspase-3/7 activity assay, 4T1 cells; type: cell-based, murine; conditions: 4T1, 5 hours, vs DMSO
Description: Caspase-3/7 activity assay. The Caspase-3/7 Fluorescence Assay Kit (Cayman, Ann Arbor, MI, USA) was used to detect the activation of caspase-3/7 and the assay was performed according to the manufacturer's instructions. Briefly, MDA-MB-231, SUM159, and 4T1 cells were seeded in a 96-well plate in triplicate. After overnight incubation, cells were treated with either LLL12B or DMSO for 5 hours. Cells were lysed and processed to measure caspase-3/7 activity and the fluorescence intensity was read (excitation=485 nm; emission=535 nm).

MDA-MB-231 cells = test: Colony formation assay, MDA-MB-231 cells; type: cell-based, human; conditions: MDA-MB-231, 24 hours treatment, 7 days drug-free, vs DMSO
Description: (§1) Colony formation assay. MDA-MB-231, SUM159, and 4T1 cells were seeded in a 6-well plate at a density of 1000 cells/well and treated with DMSO or LLL12B for 24 hours, and then cultured in a drug-free culture medium for 7 days. Colonies were fixed with methanol for 30 min and stained with 1% crystal violet in 25% methanol for 2 hours at room temperature.

4T1 cells [1] = test: Colony formation assay, 4T1 cells; type: cell-based, murine; conditions: 4T1, 24 hours treatment, 7 days drug-free, vs DMSO
Description: as §1

4T1 cells [2] = test: Wound healing assay, 4T1 cells; type: cell-based, murine; conditions: 4T1, vs DMSO
Description: Wound healing assay. MDA-MB-231, SUM159, and 4T1 cells were seeded in a 6-well plate and cultured until fully confluent. A straight scratch crossing the monolayer was created using a 200 μl pipette tip and images of scratched areas were taken. Next, cells were treated with DMSO or LLL12B. Then, images were taken until the scratch of DMSO-treated cells was closed and the relative migration (%) was calculated.

[3] = tested on: MDA-MB-231 orthotopic tumor; test: Orthotopic mammary fat pad tumor model in vivo; parameters: species or system athymic nude mice
Description: Orthotopic mammary fat pad tumor model in vivo. All mice were used under guidelines approved by the IACUC of University of Maryland School of Medicine. 6-week-old female athymic nude mice were purchased from The Jackson Laboratory (Bar Harbor, ME, USA). 2.5×10^6 MDA-MB-231 cells in 50 μl matrigel (BD Science, Franklin Lakes, NJ, USA) were inoculated into the 4th mammary fat pads bilaterally. After the tumor volume reached approximately 50 mm^3, mice were randomly divided into two groups (3 mice with 6 tumors in each group). LLL12B (2.5 mg/kg) or DMSO vehicle was administered daily by oral gavage for 28 days. Tumor size was measured by the length (L) and width (W) using a caliper ruler every 2 days. Tumor volume was calculated using 0.52×L×W^2. Body weight was monitored every 2 days. At the end of the experiment, tumors were removed and weighed. Part of the tumor tissue was lysed to detect the expression of P-STAT3 (Y705), STAT3, and Cyclin DI using Western blot analysis.
Female nude mice were implanted with MDA-MB-231 cells to establish an orthotopic tumor model to further evaluate LLL12B efficacy in vivo. MDA-MB-231 cells were inoculated into the 4th mammary fat pads and tumors were allowed to develop until the volume reached approximately 50 mm^3. Vehicle control or LLL12B (2.5 mg/kg) was administered once daily by oral gavage for 28 days.

STAT3 = conditions: human medulloblastoma cells, refs [25,31]; cited from earlier work
[4] = 2.5 mg/kg once daily oral gavage 28 days, vs vehicle
[5] = Western blot, 2.5 mg/kg oral 28 days

With `CN(C)C(=O)Oc1cccc2c1C(=O)c1cccc(S(N)(=O)=O)c1C2=O` [LLL12B] the “induction of P-STAT1 (Y701) stimulated by IFN-γ” value (STAT1) was “did not inhibit”, the “activation of caspase-3/7” value (caspase-3/7) was “induced the activation” and the colony numbers (MDA-MB-231 cells) was “significant reduction”. For the same molecule, the colony numbers (4T1 cells [1]) was “significant reduction”, the “wound closure (cell migration)” value (4T1 cells [2]) was “effectively inhibited” and the body weights [3, 4] was “no obvious reduction”. The tumor volume [3, 4] was “significantly reduced”, the tumor weight [3, 4] was “reduced” and the “Cyclin D1 expression in tumor tissues” value [3, 5] was “suppressed”. For the same molecule, the “phosphorylation of STAT3 (Y705) in tumor tissues” value [3, 5] was “suppressed” and the “IL-6 induced STAT3 phosphorylation” value (STAT3) was “inhibited”.
